Measured values taken from patent US20250332212A1, “METHOD FOR TREATING OR PREVENTING ALOPECIA” (Suzhou Mingren Pharmaceutical Biotechnology Co., Ltd., priority 2024, published 2025).
Square brackets hold non-standard residues; d marks the D form. Ends that are not written are not given here. pS = N[C@@H](COP(=O)(O)O)C(=O)O

Legend:
MYC = assay: qPCR of MYC mRNA in skin tissue; format: in vivo, mouse; settings: P>0.05
Protocol: (§1) 7.1) Dilute the specific gene amplification primers to 10 µM in ddH2O, prepare the qPCR reaction system according to the instructions in the kit and add them sequentially into a 384-well plate.
(§2) 7.3) Relative mRNA expression levels of genes were calculated by the […] relative quantification method using GAPDH as an internal reference.

SRD5A2 = assay: qPCR of SRD5A2 mRNA in skin tissue of model mice; format: in vivo, mouse; settings: model II, P>0.05
Protocol: 6.1) Sample preparation: 15-20 mg of mouse skin tissue was placed in a 1.5 mL centrifuge tube, and 600 μL of pre-cooled lysate was quickly added, and homogenized with an electric homogenizer. The homogenate obtained was blown gently 10 times, left at room temperature for 3-5 min, then centrifuged at 14,000×g for 5 min, and the supernatant was transferred to a new centrifuge tube with a pipette gun of suitable volume.
6.10) Reverse transcribe the RNA into cDNA according to the instructions of the reverse transcription kit, and then carry out subsequent experiments or store at −20° C. for later use.
as §1, §2

integrin αv = assay: Integrin αv expression in skin tissue (qPCR, immunoblotting, immunofluorescence); format: in vivo, mouse
Description: In this example, the mRNA expression levels of RGD-targeting molecules in the skin tissues of three groups of mice, namely, the AGA model control group, the model group and the JP1-treated group, were further examined.
To verify whether JP1 targeted integrin molecules are localized in hair follicles in the skin tissue, this example detected the expression levels, tissue localization, and distribution of integrin αv and integrin β1 in the skin tissue of the mouse model in Example 6 using immunofluorescence staining.
(§3) 4.1) Protein extraction: 70 mg of skin tissue was placed in a 1.5 mL centrifuge tube, and 500 μL of tissue lysate RIPA containing protease inhibitor and phosphatase inhibitor was added. The tissue was placed on an ice box, pulverized by a tissue grinder, and then ultrasonically crushed to obtain a tissue suspension, which was then placed in a rotary windmill at 4° C. to be lysed for 2 h. The centrifuge was set at 12,000×g, 4° C., centrifuged for 15 min, and the supernatant was collected as the total protein.
(§4) 5.1) Heating of protein samples: the total protein content of each tissue was 50 μg; calculate the volume of a corresponding protein sample, make up the volume with saline to 16 μL, then add 4 μL of 5×SDS sampling buffer, heat at 100° C. for 5 min, and then cool at room temperature and store at −20° C.
as §1, §2
9.5) Primary antibody incubation: the tissue was circled by the histochemical pen, about 50 μL of primary antibody was added dropwise to the tissue, and incubated in a wet box overnight at 4° C., washed 3 times with PBS.

Wnt10b = Wnt10b expression in skin tissue (qPCR, Western blotting); format: in vivo, mouse
Protocol: To illustrate the regulation of JP1 on the upstream Wnt ligand of β-catenin, this example intersected classical signaling pathway-related Wnt ligands and AGA-related Wnt ligands, and screened out the related Wnt ligands, including Wnt1, Wnt3a, Wnt7b, Wnt10a, and Wnt10b. In this example, qPCR was used to detect the mRNA expression of these Wnt molecules in the skin tissue of the mouse model in Example 6.
as §3
as §4, with “−20° C. […]” for “−20° C.”
as §2

[1] = tested on: TP-induced AGA model mice; assay: TP-induced AGA model, Animal model III (specific inhibition of SP1 by MTA); format: in vivo, C57BL/6J male mice
Description: To verify that JP1 promotes AGA follicle regeneration through the activation of the Wnt/β-catenin signaling pathway via the MAPK/E2F1/SP1 signaling axis, the example constructed a mouse model of AGA with specific inhibition of SP1 (FIG. 15A). The specific experimental details are described according to “Animal model III” of “1. TP-induced AGA model” in “Experimental Methods”.
To further confirm that JP1 promotes the growth of hair follicles on the back of AGA model mice through the SP1-regulated Wnt/β-catenin signaling pathway at the histomorphometric level, H&E staining was performed on the skin tissues of the model mice of Example 15 at different time points (days 4, 8, and 12 post-intervention).
The mice used in this study were 5-week-old C57BL/6J male mice (18-20 g), which were purchased from Jiangsu Jicui Pharmachem Biotechnology Co. All the animals used in the experiments were housed in the SPF-level environment of the Medical Laboratory Animal Center of Nanjing Medical University, and the relevant animal experimental operations were approved by the Animal Ethics Committee of Nanjing Medical University. The control group was left untreated, and the other groups were injected with TP subcutaneously on their backs every day. Two weeks later, the hair on the backs of the mice was shaved with an electric razor, covering an area of 2 cm×4 cm, and then the residual hair was removed with a hair removal cream. The subcutaneous injections of TP on the shaved backs of the mice in the AGA model was continued until the end of the experimental period, and the administration of TP in each of the treatment groups was begun on the 1st day of the dehairing process.
In addition to the normal control group (denoted as control) n=20, all mice injected subcutaneously with TP were randomly divided into the following groups (n=20): the model group (denoted as model), the 1% JP1 (skin-coated), and the 1% JP1+MTA group. […] MTA was administered at a dose of 0.3 mg/kg/d, qd, intraperitoneally, 100 μL/dose.
Mice were weighed every two days during the experiment. Skin color was assessed against skin score charts. The mice were euthanized and treated at the end of the experiment, and skin tissues were taken from the dorsal decorticated area of the mice. Some of the tissues were fixed with 4% paraformaldehyde solution and then paraffin sections were made for H&E or immunofluorescence staining, etc., and some of the tissues were stored in the refrigerator at −80° C. for relevant molecular expression assays (qRT-PCR, Western Blot, IP, etc.).
8.1) Sampling and fixation: After the experiment, skin tissue was taken from the depilated area on the back of the mouse and placed in a 10 mL EP tube. 4% paraformaldehyde was added to the EP tube, and all tissues were immersed to denature and coagulate the proteins of the skin tissue. The original morphology and structure of the cells were maintained.
8.6) H&E staining: the sections pretreated in distilled water were put into aqueous hematoxylin solution for a few minutes for staining. The color was separated in acid water and ammonia for a few seconds each. After rinsing in running water for 1 h, the sections were placed in distilled water for a few moments. The sections were dehydrated in 70% and 90% alcohol for 10 min each, and stained in alcoholic eosin stain for 2-3 min.

p-c-Raf = assay: Immunoblotting of p-c-Raf in skin tissue; format: in vivo, mouse
Protocol: as §3, §4
5.7) Primary antibody incubation: the cut protein bands were placed into the corresponding primary antibody and incubated at 4° C. on a shaker overnight, washed with TBST 3 times for 10 min/time.

E2F1 = assay: qPCR of E2F1 mRNA in skin tissue; format: in vivo, mouse; settings: after JP1 intervention, P<0.01
Protocol: as §1, §2

[2] = 1% JP1 skin-coated, MTA 0.3 mg/kg/d intraperitoneally

Substance: FPGSDRF-RGD (FPG[pS]DRFRGD) [JP1, amino acid S is phosphorylated; JWA peptide]
- MYC mRNA level, difference between groups (MYC): not statistically significant
- SRD5A2 mRNA level, difference between groups (SRD5A2): no statistically significant difference
- integrin αv expression, immunofluorescence staining (integrin αv; each JP1 intervention group, localized in the site of hair follicles): elevated
- integrin αv protein level (TP-down-regulated) (integrin αv; skin tissue, immunoblotting, JP1 P<0.01): reversed
- integrin αv expression at the end of the model (integrin αv; skin tissue, qPCR, P<0.01): returned to control levels
- integrin αv mRNA expression after JP1 intervention (integrin αv; skin tissue, qPCR, decreased in TP model group, P<0.01): significantly elevated
- Wnt10b protein expression (Wnt10b; Western blotting, dose-dependent): significantly up-regulated
- Wnt10b mRNA expression (Wnt10b; qPCR, P<0.05): elevated with a dose-effect relationship
- skin color on the back, day 8 [1, 2]: turned gray
- skin color on the back, day 10 [1, 2]: changed significantly to black-gray
- hair follicle morphology at day 8 vs 1% JP1+MTA group ([1]; H&E longitudinal section, 1% JP1): hair follicles extended downward and the bulbous part of hairs expanded
- diameter of the hair bulb ([1]; H&E, day 12, 1% JP1 P<0.001): increased
- thickness of the dermis ([1]; H&E, day 12, 1% JP1 P<0.001): increased
- total number of hair follicles vs model group and 1% JP1+MTA group ([1]; skin transection, day 8 and day 12, P<0.001): significantly more
- p-c-Raf protein level (p-c-Raf): not significantly altered
- E2F1 mRNA level expression (E2F1): elevated
